Entries after “also recorded” stand apart in the source; their conditions may differ.
Legend:
BRAF V600E [1] = molecular target: T1, BRAF V600E (Homo sapiens, UniProt P15056, V600E); test: thermal melt shift assay, purified recombinant protein; type: binding
Procedure: Arrows in the panel indicate melting temperatures at 0 μM (left) and 400 μM (right).
(§1) Whether functional inhibition of acetoacetate would attenuate BRAF V600E tumor growth was examined. Dehydroacetic acid (DHAA) (FIG. 4A) is an inhibitory homologue of acetoacetate.

[2] = system: Me1-ST cells expressing BRAF V600E; test: immortalized melanocyte treatment: proliferation, MEK-ERK activation, BRAF-MEK1 binding; type: cell-based
BRAF V600D = BRAF V600D (Homo sapiens, UniProt P15056, V600D); test: 14C-labeled acetoacetate binding assay; details: in the presence of 300 μM 14C-labeled acetoacetate
Procedure: (§2) BRAF wild type and mutant proteins were incubated with increasing concentrations of ^14C-labeled acetoacetate.
(§3) A series of radiometric metabolite-protein interaction analyses were performed using ^14C labeled acetoacetate incubated with purified BRAF variants in the presence and absence of DHAA.

BRAF V600R = BRAF V600R (Homo sapiens, UniProt P15056, V600R); test: 14C-labeled acetoacetate binding assay; details: in the presence of 300 μM 14C-labeled acetoacetate
Procedure: as §2, §3

[3] = system: Me1-ST parental or control cells expressing BRAF WT or tBRAF; test: immortalized melanocyte treatment: proliferation, MEK-ERK activation, BRAF-MEK1 binding; type: cell-based
BRAF WT-MEK1 binding = BRAF WT-MEK1 binding (Homo sapiens, UniProt P15056); test: cell-free in vitro coupled protein-protein binding and kinase assay; type: biochemical; details: in the presence of acetoacetate
Procedure: (§4) Whether DHAA inhibits BRAF V600E directly was examined. […] In contrast, DHAA had no effect on BRAF WT-MEK1 binding or MEK1 phosphorylation in a control experiment using purified BRAF WT incubated with MEK1 in the presence of acetoacetate (FIG. 4I left panel). […] This is physiologically consistent with the acetoacetate levels determined as approximately 300 μM in stable HMGCL knockdown A375 and A2058 cells.

BRAF V600E-MEK1 binding = BRAF V600E-MEK1 binding (Homo sapiens, UniProt P15056, V600E); test: as above; type: biochemical
Procedure: as §4

[4] = system: WM-266-4 cells expressing BRAF V600D; test: melanoma cell proliferation; type: cell-based
[5] = serum and tumor metabolite levels and body weight of xenograft mice; type: in vivo
BRAF V600E [6] = molecular target: T1, BRAF V600E; test: BRAF V600E kinase activity (Vmax and Km), MEK1 as substrate; type: biochemical
Procedure: as §4

BRAF V600E [7] = molecular target: T1, BRAF V600E; test: 14C-labeled acetoacetate binding assay (radiometric metabolite-protein interaction)
Procedure: as §2, §3

[8] = system: BRAF V600E-expressing human melanoma A375 cells; test: A375 xenograft in nude mice; type: in vivo
[9] = system: A375 cells expressing BRAF V600E; test: melanoma cell treatment: proliferation, MEK1/ERK1/2 phosphorylation, BRAF-MEK1 binding; type: cell-based, human
hepatomas = details: rats fed 4-(methylamino)azobenzene; cited from earlier work
[10] = system: BRAF V600E-expressing human melanoma A2058 cells; test: A2058 xenograft in nude mice; type: in vivo
Description: Xenograft tumor growth and in nude mice inoculated with BRAF V600E-positive human melanoma A2058 fed with normal or high-fat diets followed by intraperitoneal injection with DHAA.

[11] = chronic injection of DHAA to nude mice (tolerability); type: in vivo
[12] = system: SK-MEL-5 cells expressing BRAF V600E; test: melanoma cell proliferation; type: cell-based
[13] = system: A2058 cells expressing BRAF V600E; test: melanoma cell treatment: proliferation, MEK1/ERK1/2 phosphorylation, BRAF-MEK1 binding; type: cell-based, human
FLAG-tagged BRAF V600E = molecular target: T2, FLAG-tagged BRAF V600E (Homo sapiens, UniProt P15056, V600E); test: cellular thermal shift assay, lysates of transfected 293T cells; type: binding; details: 400 μM
T2 construct: FLAG; expressed in transfected cells; host or cells: 293T cells (lysates)
Description: as §1

[14] = BRAF V600E pre-treated with acetoacetate (300 μM)
[15] = DHAA at 200 μM, acetoacetate at 300 μM
[16] = tumors harvested from xenograft mice
[17] = co-treatment with DHAA, high-fat diet

Sequence of BRAF V600E-MEK1 binding (P15056 whole entry V600E): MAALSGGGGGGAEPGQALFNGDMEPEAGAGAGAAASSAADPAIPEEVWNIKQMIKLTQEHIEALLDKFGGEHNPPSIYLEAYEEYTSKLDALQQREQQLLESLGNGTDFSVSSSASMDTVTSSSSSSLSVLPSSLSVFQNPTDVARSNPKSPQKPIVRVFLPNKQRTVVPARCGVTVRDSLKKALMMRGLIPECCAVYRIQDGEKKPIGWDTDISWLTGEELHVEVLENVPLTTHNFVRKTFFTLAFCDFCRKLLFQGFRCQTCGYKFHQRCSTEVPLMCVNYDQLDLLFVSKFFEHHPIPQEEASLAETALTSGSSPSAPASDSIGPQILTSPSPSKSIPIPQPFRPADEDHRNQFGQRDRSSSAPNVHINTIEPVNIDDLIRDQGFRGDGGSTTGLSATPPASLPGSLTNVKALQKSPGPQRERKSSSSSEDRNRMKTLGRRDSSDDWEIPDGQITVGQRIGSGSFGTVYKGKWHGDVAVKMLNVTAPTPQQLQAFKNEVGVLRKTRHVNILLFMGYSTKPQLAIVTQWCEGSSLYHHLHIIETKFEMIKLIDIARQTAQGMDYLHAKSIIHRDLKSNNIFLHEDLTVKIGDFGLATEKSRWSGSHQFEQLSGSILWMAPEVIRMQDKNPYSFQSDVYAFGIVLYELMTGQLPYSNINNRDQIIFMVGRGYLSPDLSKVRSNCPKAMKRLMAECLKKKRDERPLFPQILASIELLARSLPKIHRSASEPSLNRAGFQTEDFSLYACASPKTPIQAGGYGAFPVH
T1 sequence (P15056 whole entry V600E): as above
T2 sequence (P15056 whole entry V600E): as above
Sequence of BRAF WT-MEK1 binding (P15056 whole entry): as the sequence (P15056 whole entry V600E) above, with E600V counted along it
Sequence of BRAF V600R (P15056 whole entry V600R): as the sequence (P15056 whole entry V600E) above, with E600R counted along it
Sequence of BRAF V600D (P15056 whole entry V600D): as the sequence (P15056 whole entry V600E) above, with E600D counted along it

SMILES: CC(=O)c1c(O)oc(C)cc1=O [DHAA, 3-Acetyl-2-hydroxy-6-methyl-4H-pyran-4-one]
- binding in thermal melt shift assay (BRAF V600E [1]): directly binds
- BRAF V600E-MEK1 binding [2]: selectively inhibited
- MEK-ERK activation [2]: selectively inhibited
- cell proliferation [2]: selectively inhibited
- Ki (BRAF V600D): ~88 µM
- Ki (BRAF V600R): ~91 µM
- BRAF-MEK1 binding [3]: but not parental or control cells
- BRAF WT-MEK1 binding (BRAF WT-MEK1 binding): had no effect
- MEK1 phosphorylation (BRAF WT-MEK1 binding): had no effect
- acetoacetate-enhanced MEK1 binding to BRAF V600E (BRAF V600E-MEK1 binding; [14]): effectively inhibited
- phosphorylation of V600E-bound MEK1 (BRAF V600E-MEK1 binding; [14]): effectively inhibited
- BRAF V600E-MEK1 binding and phosphorylation of MEK1 enhanced by acetoacetate (BRAF V600E-MEK1 binding; [15]): inhibit BRAF V600E-MEK1 binding and phosphorylation of MEK1
- cell proliferation [4]: selectively inhibited cell proliferation
- body weight ([5]; effect of treatment): did not affect body weight
- serum cholesterol levels ([5]; effect of treatment): did not affect; also recorded: had no effect
- serum glucose levels ([5]; effect of treatment): did not affect; also recorded: had no effect
- serum levels of 3HB (β-hydroxybutyrate) ([5]; effect of treatment): did not affect; also recorded: had no effect
- serum levels of acetoacetate ([5]; effect of treatment): had no effect
- acetoacetate levels in tumors [5, 16]: did not affect
- β-hydroxybutyrate levels in tumors [5, 16]: did not affect
- activating effect of acetoacetate on BRAF V600E (increased Vmax, decreased Km) (BRAF V600E [6]; in the presence of acetoacetate (300 μM)): effectively reversed the activating effect of acetoacetate
- BRAF V600E kinase activity (Vmax and Km) (BRAF V600E [6]; increasing concentrations of DHAA alone): did not affect BRAF V600E kinase activity
- competition with acetoacetate for BRAF V600E binding (BRAF V600E [7]; BRAF V600E pre-treated with 14C-labeled acetoacetate, increasing concentrations of DHAA): competed with acetoacetate for BRAF V600E binding in a dose-dependent manner
- block of acetoacetate binding by pre-treatment (BRAF V600E [7]; DHAA 200 μM pre-treatment, 14C-labeled acetoacetate up to 400 μM): sufficient to block acetoacetate binding
- competition with acetoacetate for BRAF V600E binding (BRAF V600E [7]; [15]): sufficient to compete
- Ki (BRAF V600E [7]; in the presence of 300 μM 14C-labeled acetoacetate): ~88 µM
- binding ability of BRAF V600E mutant forms to acetoacetate (BRAF V600E [7]; treatment with DHAA, BRAF V600E and tBRAF V600E): significant decrease in binding ability
- high-fat diet-dependent enhancement of BRAF V600E-MEK1 binding in tumors ([8]; DHAA, high-fat diet): significantly attenuated
- high-fat diet-dependent enhancement of cell proliferation rates (Ki67) in tumors ([8]; DHAA, high-fat diet): significantly attenuated
- high-fat diet-dependent enhancement of phosphorylation of MEK1 and ERK1/2 in tumors ([8]; DHAA, high-fat diet): significantly attenuated
- high-fat diet-enhanced tumor growth potential [8, 17]: effectively reversed the enhanced tumor growth potential
- HMGCL expression in tumors ([8]; mouse, in vivo): without affecting HMGCL expression
- BRAF V600E-MEK1 binding in tumors ([8]; single agent): reduced binding between BRAF V600E-MEK1
- cell proliferation rates in tumors (Ki67 IHC staining) ([8]; single agent): reduced cell proliferation rates
- phosphorylation of MEK1 and ERK1/2 in tumors ([8]; single agent): selectively inhibited phosphorylation of MEK1 and ERK1/2
- xenograft tumor growth (growth rates, sizes, masses) ([8]; single agent, normal diet): effectively inhibited xenograft tumor growth rates, sizes and masses
- BRAF V600E-MEK1 association [9]: selectively inhibited
- cell proliferation [9]: selectively inhibited cell proliferation; also recorded: selectively inhibits
- phosphorylation of MEK1 and ERK1/2 [9]: selectively inhibited phosphorylation of MEK1 and ERK1/2
- induction of hepatomas (hepatomas): inhibitory effect
- high-fat diet-dependent enhancement of BRAF V600E-MEK1 binding in tumors ([10]; DHAA, high-fat diet): significantly attenuated
- high-fat diet-dependent enhancement of cell proliferation rates (Ki67) in tumors ([10]; DHAA, high-fat diet): significantly attenuated
- high-fat diet-dependent enhancement of phosphorylation of MEK1 and ERK1/2 in tumors ([10]; DHAA, high-fat diet): significantly attenuated
- high-fat diet-enhanced tumor growth potential [10, 17]: effectively reversed the enhanced tumor growth potential; also recorded: reverses high-fat diet-enhanced BRAF V600E tumor growth
- HMGCL expression in tumors ([10]; mouse, in vivo): without affecting HMGCL expression
- BRAF V600E-MEK1 binding in tumors ([10]; single agent): reduced binding between BRAF V600E-MEK1
- cell proliferation rates in tumors (Ki67 IHC staining) ([10]; single agent): reduced cell proliferation rates
- phosphorylation of MEK1 and ERK1/2 in tumors ([10]; single agent): selectively inhibited phosphorylation of MEK1 and ERK1/2
- xenograft tumor growth (growth rates, sizes, masses) ([10]; single agent, normal diet): effectively inhibited xenograft tumor growth rates, sizes and masses
- histopathological analyses and weights of diverse organs ([11]; 200 mg/kg/day intraperitoneally, ~4 weeks): did not cause notable differences
- components of the gut microbiota ([11]; chronic treatment): altered proportions but no loss of any components
- effect on the mouse gut microbiome ([11]; chronic treatment): had no obvious effect
- total DNA amount extracted from bacteria in mouse feces ([11]; chronic treatment): unaltered total DNA amount
- well-tolerated dose ([11]; intraperitoneally, ~4 weeks): 200 mg/kg/day
- toxicity in vivo ([11]; mouse, in vivo): does not cause obvious toxicity in vivo
- complete blood counts (CBC) or hematopoietic properties ([11]; representative A375 xenograft mice, compared to the water-treated group): did not alter
- cell proliferation [12]: selectively inhibited cell proliferation
- BRAF V600E-MEK1 association [13]: selectively inhibited
- cell proliferation [13]: selectively inhibited cell proliferation; also recorded: selectively inhibits
- phosphorylation of MEK1 and ERK1/2 [13]: selectively inhibited phosphorylation of MEK1 and ERK1/2
- affinity for BRAF V600E relative to acetoacetate (FLAG-tagged BRAF V600E): higher affinity than acetoacetate
- binding in cellular thermal shift assay (FLAG-tagged BRAF V600E): bound only to BRAF V600E

Reference: patent US10792274B2, “Dehydroacetic acid (DHAA) and derivative for uses in treating cancer” (Emory University, priority 2016, dated 2020)
